melting point [°C]	Structure (SMILES)
161	O=C(c1cc2ccccc2c(-c2ccccc2Cl)n1)N1CCCCC1
128 to 129	O=c1c(N2CCCNCC2)nc2ccccc2n1-c1cccc(F)c1
75 to 76	N#CCCn1ncccc1=O
58 to 62	Oc1cccc(C(O)CNCCCCn2cnc3ccccc32)c1 (stereo unspecified)
142 to 144	CCOC(=O)C1(C(=O)OCC)CCC2(c3cc(OC)c(OC)cc3CCN2C(C)=O)C(C2c3cc(OC)c(OC)cc3CCN2CC)C1 (stereo unspecified)
168 to 170	O=C1CCc2c(-c3ccncc3)sc(-c3ccncc3)c21
115 to 116	CC(C)(C(=O)OCc1ccccc1)N1COC(CO)=C(c2ccccc2)C1=O
176 to 178	CSc1nc(Cl)c([N+](=O)[O-])c(N2CCS(=O)CC2)n1
195 to 197	CCOC(=O)c1cc2c(OC)ccnc2[nH]1
323 to 327	O=c1[nH]c2cc(F)c(Br)c([N+](=O)[O-])c2[nH]c1=O
89.9	CCCCCCCCC(SCCCCCC)C(=O)Nc1c([N+](=O)[O-])ccc2ncccc12 (stereo unspecified)
160 to 161	CC=C1CCC2C3C(O)CC4CC(O)CCC4(C)C3CCC12C (stereo unspecified)
110 to 111	NCCc1c2n(c3ccccc13)C(=O)CCC2
128 to 130	CCOC(=O)C1=C(N)NC(N)=C(C(=O)OCC)C1c1ccccc1F
205 to 206	CC(C)(C)NC(=NC#N)Nc1cccnc1
133 to 134	COc1ccc(CNc2cccc3nc(-c4cccc(Cl)c4)oc23)cc1OC1CCCC1
113 to 114	COc1ccc(CC(=O)N2CCCCC2CC(c2ccccc2)c2ccccc2)cc1OC (stereo unspecified)
120 to 122	O=C1CCCN1S(=O)(=O)c1ccc(N2CCOCC2)cc1
29 to 31	CC(=O)C(=[N+]=[N-])C(=O)CCCCCCCCCc1ccccc1
300	O=C(O)c1cn(C2CC2)c2c(F)c(N3CCC(=NO)C3)c(F)c(F)c2c1=O
123 to 125	CSc1sc(-c2cccnc2)c2c1-c1oncc1C(C)(C)C2
165	Cc1nnsc1C(=O)NS(=O)(=O)c1ccc(Cl)cc1
228 to 230	OCc1c(Cl)c(Cl)c(Cl)c(CO)c1Cl
110 to 112	CCOC(=O)C(=O)Nc1ccc(CC)cc1[N+](=O)[O-]

melting point [°C]	Structure (SMILES)
102 to 103	COC(=O)c1ccc2c(c1)CC(=O)O2
207 to 209	CC(C)(C)C(=O)c1c[nH]c2ncc(C3=C(c4ccccc4)CCC3)nc12
179 to 180	NCC1CCc2[nH]c3ccc(F)c(Cl)c3c2C1 (stereo unspecified)
71 to 72	CCOC(=O)C(=O)c1cn(CCN(C)C)c2ccccc12
226	Cc1cccc(N=c2scc(-c3ccc(Cl)c(S(=O)(=O)N(C)C)c3)n2C)c1C
94	CC(C)(C)OC(=O)Cn1c(C(=O)OCc2ccccc2)cc2cnccc21
124	CCOc1nc(Cl)nc(N(C)C)n1
212 to 213	CC(C)(C)OC(=O)N1CCN(c2cccc(-c3cnc4[nH]cc(C(=O)C5(C)CCCCC5)c4n3)c2)CC1
200 to 202	CC(CO)(CO)NCc1cc2c3ccccc3ccc2c2ccccc12
90 to 92	CC(C(=O)n1c(=O)oc2ccccc21)C(O)C(C)(C)C (stereo unspecified)
90	CC(C)(C)N1CC(COc2cccc3c2SCCC3)OC1=O (stereo unspecified)
98	Cc1cccc2oc(C(O)[C@H](C)NC(=O)OCc3ccccc3)nc12 (stereo partly specified)
104 to 106	Cn1cc(C#N)c(-c2ccco2)n1
205 to 208	CC(=O)N(C)c1c(I)c(NC(=O)CCCCCCCC(=O)O)c(I)c(C(=O)O)c1I
> 300	Cc1cc2[nH]c(=O)c(C(=O)O)nc2cc1-n1ccc(CNC(=O)Nc2ccc(C(=O)O)cc2)c1
105 to 107	COc1ccc(CCNC(=O)c2ccc3c(c2)C=CC(C)(C)O3)cc1
156 to 157	O=C(O)CC1(O)CCc2c([nH]c3ccccc23)C1=O (stereo unspecified)
111 to 112	COc1ccc(C2CNC(=O)O2)cc1OC1CCCC1 (stereo unspecified)
234	CC(=O)OCC(=O)C1(O)CCC2C3CCC4=CC(=O)CCC4(C)C3=CCC21C (stereo unspecified)
164 to 166	CCOc1c(Cl)ccc(-c2nc(C(=O)OC)c(Cl)c(S(C)(=O)=O)n2)c1F
201 to 202	CCOC(=O)Cc1nnc(-c2cc3cccc(N(C)S(=O)(=O)c4cccs4)c3[nH]2)s1
108 to 111	O=C(O)C1CSC(c2ccccc2OCC2CCC(CO[N+](=O)[O-])CC2)N1 (stereo unspecified)
90 to 92	ClC(Cl)(Cl)C1Nc2ccccc2CO1 (stereo unspecified)
274 to 275	Cc1c(N)cccc1-c1cn(C)c(=O)c(Nc2ccc(C(=O)N3CCOCC3)cc2)n1

melting point [°C]	Structure (SMILES)
126	COC(=O)CCCCc1cc2nc(Cl)ccc2n1S(=O)(=O)c1cc(C)cc(C)c1
149	CNc1nc(OCc2ccccc2)ccc1[N+](=O)[O-]
204 to 205	FC(COC1CCC(Nc2ncnc3[nH]ncc23)CC1F)c1ccccc1 (stereo unspecified)
89 to 91	COC(=O)Cn1sc2nc(C)cc(C)c2c1=O
202 to 204	Oc1ccc2c(c1)SCCc1c-2n(CCCCCN2CCCC2)c2ccc(O)cc12
183	CCOC(=O)C(F)(F)c1ccc(NC(=O)c2ccc3c(c2)C(C)(C)CCC3(C)C)cc1
72	CCOC(=O)NC=C(C(=O)OCC)c1ccc(Cl)cc1
277	CC1(C)CCC(C)(C)c2c(OCc3ccc(F)cc3)cc(C(=O)c3ccc4cc(C(=O)O)ccc4c3)cc21
98 to 100	CC(O)c1ccc(CCNS(=O)(=O)c2ccccc2)cc1 (stereo unspecified)
56 to 57	CC=CC(=O)OCC(C)(Sc1cc2ccccc2n1C)c1ccccc1 (stereo unspecified)
138 to 141	O=C(O)c1ccc(-c2ccc(F)cc2)cc1
105 to 107	CC(=S)NCC1CN(c2ccc(N(C)C=O)c(F)c2)C(=O)O1 (stereo unspecified)
180 to 182	CC(=O)n1ncc2cc(C)c([N+](=O)[O-])cc21
114 to 116	CCC[C@@H]1CCC[C@H](NC(=O)OC(C)(C)C)C(=O)N1
178 to 179	COC(=O)Nn1c(N)c(C#N)c(C)c1-c1ccccc1
216 to 219	C[C@@H]1Cc2cc3c(cc2C(c2ccc(Cl)cc2)=NN1C1=NCCS1)OCO3
136 to 138	CN(C)c1nc2c(ccc3ccccc32)s1
227 to 229	COc1cc2c(cc1-c1cccnc1)-c1c(-c3cccs3)c3c(n1CC2)C(=O)N(C(C)C)CCNC3
138	CNC(=O)c1ccc(F)c2c1CC(N(CCc1c[nH]c3ccc(F)cc13)CC1CC1)CO2 (stereo unspecified)
200	O=C(Cc1cccc2ccccc12)Nc1cc([C@H]2C[C@@H](NC(=O)c3ccc4ccccc4n3)C2)[nH]n1
235	COc1ccc(S(=O)(=O)C2(C(=O)O)CCN(CCOc3ccccc3)CC2)cc1
189 to 191	O=C1NC(=O)C(Cc2ccc(OCc3nc4cccnc4n3Cc3ccc(-c4ccccc4)cc3)cc2)S1 (stereo unspecified)
160 to 162	Cc1c(NC(=O)c2ccc(OC[C@@H]3CCCO3)cc2)ccc2c1cc(CNCC(C)(C)O)n2C
158 to 159	Cc1c(C(=O)OC(C)(C)C)oc2cccc(O)c12

melting point [°C]	Structure (SMILES)
205 to 210	O=C(NO)c1ccc(OC/C=C/COc2ccc(C(=O)NO)cc2)cc1
126 to 127	COc1c(C)c(C)c(OC)c(C(O)(c2cccnc2)C2CCCC2)c1C (stereo unspecified)
193 to 195	Fc1cccc2cc3cccc(F)c3nc12
233 to 235	Cn1ccnc1Sc1ccc(Nc2c(C#N)cnc3cc(-c4ccc(CN5CCOCC5)nc4)ccc23)cc1Cl
117 to 119	CCOC(=O)c1cn2c(C)csc2n1
154 to 155	COc1ccc(C2(C#N)CCC(=O)C(C(N)=O)C2)cc1OCC1CC1 (stereo unspecified)
174 to 176	CCC(C)C(NC(c1ccccc1)c1ccccc1)P(O)O (stereo unspecified)
< 20	CCOC(=O)C(C)(C)Oc1ccc(-c2ccc(CCNC(=O)c3cccc(C)c3)cc2)cc1
142 to 143	c1ccc(-c2csc(CN3CCN(c4ccccc4)CC3)n2)cc1
188 to 190	Cc1ccc2c(c1)c(-c1ccc(F)cc1)c(C)n2C1CCN(CCN2CCNC2=O)CC1
86.5	O=C1CCCN1c1cccc(-c2ccc(CC34CCCN3C(=O)N(c3cc(Cl)cc(Cl)c3)C4=O)cc2)c1 (stereo unspecified)
70 to 71	COc1ccc2c(C)cccc2c1C(F)(F)F
305 to 307	O=C1Cc2cc(C3=NNC(=O)C4CC34)ccc2N1 (stereo unspecified)
115 to 117	CCC(CC)Nc1c(Br)c(CBr)nc2c1nnn2-c1c(C)cc(C)cc1C
92 to 92.5	c1cncc(-c2ccc3c(c2)OCO3)c1
133 to 134	N#Cc1ccc2oc(CCCCCc3cc4cc(C#N)ccc4o3)cc2c1
271 to 272	CCn1c(=O)c2[nH]c(/C=C/c3cccc(OC)c3)nc2n(CC)c1=O
213	O=C(Nc1n[nH]c(=S)s1)NC(Cc1ccccc1)C(=O)NCc1ccc2c(c1)OCO2 (stereo unspecified)
110 to 112	CC(C)c1cc(OCC(=O)N(Cc2ccccc2)Cc2ccccc2)cc2c1C(=O)N(COC(=O)c1c(Cl)cccc1Cl)S2(=O)=O
160	COc1ccc2c(c1)n(C1CCCCC1)c(=O)n2S(=O)(=O)c1ccc([N+](=O)[O-])cc1
156 to 158	CN(C(=O)C1(C(=O)O)CC1)c1ccc(Cl)cc1
70	CCOC(=O)CCC(=O)c1ccc(Cl)cc1OCC(O)CNC(C)(C)C (stereo unspecified)

Structure (SMILES)	melting point [°C]
CC12CCC3C(CCC4CC(=O)CCC43CO[Si](C)(C)C(C)(C)C)C1CCC2=O (stereo unspecified)	130 to 132
CNC(=O)On1cc(Cl)cn1	125
CC(c1ccc(Cl)cc1Cl)n1nc(C(=O)O)cc1-c1ccc(Cl)cc1 (stereo unspecified)	80
CN(C)CCc1c[nH]c2ccc(C=CC(=O)NCc3ccc([N+](=O)[O-])cc3)cc12	177 to 187
CN1C(=S)N(c2ccc(C#N)c(C(F)(F)F)c2)C(=N)C12CCCC2	165 to 166
NN1CCN(Cc2c[nH]c3ccccc23)CC1	147 to 149
Cc1cccc(NC(=O)NC2N=C(C3CCCC3)c3ccccc3N(CC(=O)N3CC4CCC(CC4)C3)C2=O)c1 (racemic)	132 to 134

Source: a melting point compilation (Tetko et al.; mined from patent text by program, amines drawn as free bases though some values may be those of a salt)
